These results are taken from the Deep4Chem optical property database.

Several values for one entry are separate records, joined by “and”; a condition that tells them apart may be missing. Equal values may be shown once.

The data set in a line: solvent given as SMILES.

`O=C1c2ccccc2-c2c(-c3ccc([N+](=O)[O-])cc3)c(-c3ccc([N+](=O)[O-])cc3)c(-c3ccccc3)c3cccc1c23` yielded an emission maximum (in CC#N) of 496 nm and an emission maximum (in CO) of 509 nm.
Regarding `CCCCN1C(=O)c2ccc3c4ccc5c6c(cc(Br)c(c7ccc(c2c37)C1=O)c64)C(=O)N(CCCC)C5=O`, the emission maximum (in ClCCl) is reported as 540 nm.
As for `CC(C)(C)c1ccc2c(c1)c1cc(C(C)(C)C)ccc1n2-c1cccc2c1Oc1c(-c3nc(-c4ccccc4)nc(-c4ccccc4)n3)cccc1C2(C)C`, the emission maximum is 428 nm (in C1CCCCC1), 503 nm (in CC(C)=O), 451 nm (in Cc1ccccc1) and 489 nm (in ClC(Cl)Cl).
`N#Cc1nn(-c2ccc(Cl)cc2)nc1N1CCCC1` came in with an emission maximum (in CC#N) of 429 nm.
The compound `CC1=[N+]2C(=C(c3ccc(C(=C(c4ccccc4)c4ccccc4)c4ccccc4)cc3)c3ccc(C)n3[B-]2(F)F)C=C1` registered an emission maximum (in C1CCOC1) of 530 nm.
`CCNc1cc2oc3c/c(=[NH+]\CC)c(C)cc-3c(-c3ccccc3C(=O)OCC)c2cc1C`: the emission maximum by setting is: (in CC#N) 552 nm; (in CCO) 552 nm; (in CN(C)C=O) 532 nm; (in CO) 555 nm; (in O) 554 nm.
Consider `CCCCC(CC)CN1C(=O)c2cccc3c(C#Cc4ccc(N(c5ccccc5)c5ccccc5)cc4)ccc(c23)C1=O` (stereo unspecified), for which the emission maximum was 462 nm (in C1CCCCC1); 621 nm (in C1CCOC1); 547 nm (in CC#N); 512 nm (in Cc1ccccc1); 582 nm (in ClC(Cl)Cl).
`CCCCCCCCN1C(=O)c2ccc3c4c(-c5ccc(-n6c7ccccc7c7ccccc76)cc5)cc5c6c(ccc(c7c(-c8ccc(-n9c%10ccccc%10c%10ccccc%109)cc8)cc(c2c37)C1=O)c64)C(=O)N(CCCCCCCC)C5=O`: the emission maximum (in ClC(Cl)Cl) was 651 nm.
`CCn1c2ccccc2oc2c(C#N)c3oc4ccccc4oc3c(C#N)c21` came in with an emission maximum (in ClC(Cl)Cl) of 555 nm.
Take `CCCCCCCCCCCCNc1cccc2[n+]1[B-](F)(F)n1c(c3cccc4cccc1c43)=N2`: the emission maximum runs as follows: (in C1CCOC1) 523 nm; (in CC#N) 519 nm; (in CCCCCC) 509 nm; (in Cc1ccccc1) 529 nm; (in ClCCl) 522 nm.
In the case of `COc1ccc([C@@H]2C[C@](O)(c3ccccn3)C[C@](O)(c3ccccn3)[C@H]2C(=O)c2ccc(N(c3ccccc3)c3ccccc3)cc2)cc1`, the emission maximum was 495 nm (in C1CCOC1); 522 nm (in CC#N); 504 nm (in CCO); 495 nm (in CCOC(C)=O); 521 nm (in CN(C)C=O); 513 nm (in ClCCl). In addition, where the note is “in c1ccccc1”, the emission maximum amounted to 468 nm.
On to `CCCCC1=Cc2c3ccc4cccc5ccc(c6cc(-c7ccc(N(c8ccccc8)c8ccccc8)cc7)n(c26)P1(=O)c1ccccc1)c3c45` (stereo unspecified), for which the emission maximum runs as follows: (in C1CCCCC1) 502 nm; (in C1CCOC1) 541 nm; (in C1COCCO1) 526 nm; (in CC#N) 572 nm; (in CC(C)=O) 560 nm; (in CO) 563 nm. In addition, the emission maximum is 518 nm (in Cc1ccccc1), 537 nm (in ClC(Cl)Cl) and 551 nm (in ClCCl).
With `Oc1ccccc1-c1nc2c3cccnc3c3ncccc3c2n1-c1ccccc1`, for the setting “in Cc1ccccc1”, the emission maximum is recorded as 379 nm.
Compound `O=C1CC(=O)Nc2cc([N+](=O)[O-])ccc2N1` displayed an emission maximum (in CS(C)=O) of 403 nm.
`CC(=O)Nc1ccc(C2=C/C(=C\c3ccc([N+](=O)[O-])cc3)C(=O)O2)cc1`: the emission maximum (in C1COCCO1) is 550 nm.
The compound `Clc1ccc(-c2c3nc(c(-c4ccc(Cl)cc4)c4ccc([nH]4)c(-c4ccc(Cl)cc4)c4nc(c(-c5ccc(Cl)cc5)c5ccc2[nH]5)C=C4N2CCOCC2)C=C3)cc1` had an emission maximum (in CS(C)=O) of 662 nm.
With `Cc1ccccc1N(c1ccc(C(C)(C)C)cc1)c1ccc2ccc3c(N(c4ccc(C(C)(C)C)cc4)c4ccccc4C)ccc4ccc1c2c43`, under “in Cc1ccccc1”, the emission maximum is 462 nm.
With `CC1(C)C(/C=C/C=C/c2cc3ccc(O)cc3oc2=O)=[N+](CCCS(=O)(=O)[O-])c2ccc(S(=O)(=O)O)cc21`, the emission maximum is, setting by setting: (in CCO) 654 nm; (in CS(C)=O) 655 nm; (in O) 722 nm.
Consider `c1ccc(-c2nc(-c3ccccc3)nc(-c3ccc(-n4c5ccccc5c5cc(-c6ccc7oc8ccccc8c7c6)ccc54)cc3)n2)cc1`, for which the emission maximum turned out to be 470 nm (in CCOC(C)=O), 526 nm (in CN(C)C=O) and 433 nm (in Cc1ccccc1).
With `CCCCN1C(=O)c2ccc3c4ccc5c6c(ccc(c7ccc(c2c37)C1=O)c64)C(=O)N(CCCC)C5=O`, the emission maximum (in ClC(Cl)Cl) is 533 nm.
The compound `CCN(CC)c1ccc2cc(-c3nc4cc(C(=O)Nc5ccccc5)ccc4o3)c(=O)oc2c1` displayed an emission maximum (in ClCCl) of 495 nm.
Under “in CC#N”, `N#C/C(=C\c1ccc(C#N)cc1)c1nc(-c2ccc(Cl)cc2)c(-c2ccccc2)s1` gave an emission maximum of 522 nm.
`C=CCOc1nnc(OCCC(F)(F)C(F)(F)C(F)(F)C(F)(F)C(F)(F)C(F)(F)C(F)(F)C(F)(F)F)nn1`: the emission maximum came out at 572 nm (in ClCCl) and 560 nm (in OCC(F)(F)F).
For the compound `Cc1ccc(C#Cc2ccc(C#Cc3ccc(C#Cc4ccccc4C#N)cc3C#N)cc2C#N)cc1`, the emission maximum (in ClC(Cl)Cl) is 403 nm.
In the case of `C(#Cc1ccccc1)c1ccccc1`, the emission maximum came out at 307 nm (in CO), 320 nm (in ClC(Cl)Cl) and 302 nm (in ClCCl).
Consider `CCN(C)c1ccc(C2=C3C(C)=CC(/C=C/c4ccc(OCCCN=[N+]=[N-])cc4)=[N+]3[B-](F)(F)n3c(C)cc(C)c32)cc1`, for which, under “in CO”, the emission maximum turned out to be 586 nm.
`CCC(CC)n1c2ccccc2c2cc3c(cc21)c1ccccc1n3C(CC)CC` showed an emission maximum (in ClC(Cl)Cl) of 423 nm.
In turn, `CCCCCCN1C(=O)c2cccc3c(-c4ccc(OC)s4)ccc(c23)C1=O` displayed an emission maximum (in ClC(Cl)Cl) of 503 nm.
On to `Nc1ccc2ccc([O-])cc2c1`, for which the emission maximum (in O) stood at 407 nm.
`CC(=O)OC[C@@H]1O[C@H](N2C=CC3=Nc4nc(C)[n+](C)cc4CN3C2=O)[C@@H](O)[C@H]1O`: the emission maximum reads like this: (in CC#N) 416 nm; (in CCO) 418 nm; (in O) 414 nm.
Turning to `O=[N+]([O-])c1ccc(/C2=C3N=C(C(c4ccccc4)=C/3c3ccccc3)/C(c3ccc([N+](=O)[O-])cc3)=c3\[nH]/c(c(-c4ccccc4)c3-c3ccccc3)=C(/c3ccc([N+](=O)[O-])cc3)C3=N/C(=C(/c4ccc([N+](=O)[O-])cc4)c4[nH]c2c(-c2ccccc2)c4-c2ccccc2)C(c2ccccc2)=C3c2ccccc2)cc1`, the emission maximum (in ClCCl) came to 745 nm.
With `O=[N+]([O-])c1ccc(/C=C/c2cn(S(=O)(=O)c3ccccc3)c3ccccc23)cc1`, the emission maximum runs as follows: (in CC#N) 593 nm; (in CCCCCCC) 403 nm; (in CO) 417 nm; (in O) 540 nm.
As for `CCCCCCCCCCCCN1C(=O)c2c(c3ccc4cc(-c5cccs5)c(OC)cc4c3c3c2ccc2cc(-c4cccs4)c(OC)cc23)C1=O`, under “in ClCCl”, the emission maximum came to 545 nm.
`CCC(C)(C)c1ccc2c(c1)C(CCOC)(CCOC)c1cc(-c3ccc(-c4ccc5c(c4)C(CCOC)(CCOC)c4cc(C(C)(C)CC)ccc4-5)cc3)ccc1-2` came in with an emission maximum (in C1CCCCC1) of 380 nm.
For `C(#Cc1ccc2c(c1)c1cc(C#Cc3ccccc3)ccc1n2-c1cc2ccccc2c2ccccc12)c1ccccc1`, the emission maximum (in ClCCl) is 392 nm.
For the setting “in C1CCOC1”, `C[Si](C)(C)c1ccc(-c2ccc(-c3ccc(-c4ccc(-c5ccc([Si](C)(C)C)cc5)s4)c4nsnc34)s2)cc1` displayed an emission maximum of 620 nm.
For `CCCCCCCCOc1ccc(C#Cc2c3cc4ccccc4cc3c(C#C[Si](C(C)C)(C(C)C)C(C)C)c3cc4ccccc4cc23)cc1`, the emission maximum (in ClCCl) was determined as 666 nm.
Same read-out and setting: next, `CCCCCCOc1ccc(N(c2ccc(OCCCCCC)cc2)c2ccc(-c3sc(-c4ccc(N(c5ccc(OCCCCCC)cc5)c5ccc(OCCCCCC)cc5)cc4)c4nc(-c5ccc(OC)cc5)c(-c5ccc(OC)cc5)nc34)cc2)cc1`: 752 nm.
On to `CC1=[N+]2C(=C(c3c4ccccc4cc4ccccc34)c3ccc(C)n3[B-]2(F)F)C=C1`, for which the emission maximum reads like this: (in C1CCOC1) 528 nm; (in CC#N) 524 nm; (in CCCCCC) 524 nm and 528 nm; (in CCO) 524 nm; (in CN(C)C=O) 531 nm; (in CO) 527 nm. Moreover, the emission maximum is on record as 529 nm (in CS(C)=O), 530 nm (in Cc1ccccc1), 526 nm (in ClC(Cl)Cl) and 528 nm (in ClCCl).
Regarding `Oc1ccccc1/C=N/N=C/c1ccccc1O`, the emission maximum is 588.24 nm (in CC#N); 583.09 nm (in CC(C)CCCC(C)CCCC(C)CCCCC(C)CCCC(C)CCCC(C)C); 578.03 nm (in CCCCCC); 581.4 nm (in CCCCCCCCC); 581.4 nm (in CCCCCCCCCCCCCCCC); 584.8 nm (in CCCCl). Further, the emission maximum was found to be 576.37 nm (in CCN(CC)CC); 579.71 nm (in CCO); 588.24 nm (in CCOCC); 573.07 nm (in CO); 571.43 nm (in OC(C(F)(F)F)C(F)(F)F); 573.07 nm (in OCC(F)(F)F). Besides, the emission maximum (in OCCO) was determined as 584.8 nm.
As to `N#CC(C#N)=Cc1ccc(-c2ccc(-c3nc4ccccc4s3)c(O)c2)s1`, the emission maximum by setting is: (in CCO) 499 nm; (in ClCCl) 503 nm; (in O) 609 nm.
